Experimental data: paper PMC5148695 (Neuropharmacology, 2016)

Biological target: α4β3δ GABAA receptor (Homo sapiens, UniProt P28472+P48169)
Test: whole-cell patch clamp, potentiation of GABA EC20 current
Format: cell-based

Sequence of α4β3δ GABAA receptor (P48169 36-554): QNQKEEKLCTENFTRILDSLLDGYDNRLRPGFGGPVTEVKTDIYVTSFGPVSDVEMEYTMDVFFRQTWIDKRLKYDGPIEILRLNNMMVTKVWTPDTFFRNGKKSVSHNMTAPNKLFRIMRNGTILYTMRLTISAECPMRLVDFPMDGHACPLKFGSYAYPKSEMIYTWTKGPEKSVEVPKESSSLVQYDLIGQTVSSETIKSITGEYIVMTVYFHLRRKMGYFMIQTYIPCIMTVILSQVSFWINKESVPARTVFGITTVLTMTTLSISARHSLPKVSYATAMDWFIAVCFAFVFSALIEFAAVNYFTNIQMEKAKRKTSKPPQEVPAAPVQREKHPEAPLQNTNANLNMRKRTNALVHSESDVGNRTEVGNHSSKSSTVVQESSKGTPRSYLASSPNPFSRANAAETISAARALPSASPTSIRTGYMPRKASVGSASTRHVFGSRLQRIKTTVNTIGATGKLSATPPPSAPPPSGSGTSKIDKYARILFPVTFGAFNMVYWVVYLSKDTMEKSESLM
Sequence of α4β3δ GABAA receptor (P28472 26-473): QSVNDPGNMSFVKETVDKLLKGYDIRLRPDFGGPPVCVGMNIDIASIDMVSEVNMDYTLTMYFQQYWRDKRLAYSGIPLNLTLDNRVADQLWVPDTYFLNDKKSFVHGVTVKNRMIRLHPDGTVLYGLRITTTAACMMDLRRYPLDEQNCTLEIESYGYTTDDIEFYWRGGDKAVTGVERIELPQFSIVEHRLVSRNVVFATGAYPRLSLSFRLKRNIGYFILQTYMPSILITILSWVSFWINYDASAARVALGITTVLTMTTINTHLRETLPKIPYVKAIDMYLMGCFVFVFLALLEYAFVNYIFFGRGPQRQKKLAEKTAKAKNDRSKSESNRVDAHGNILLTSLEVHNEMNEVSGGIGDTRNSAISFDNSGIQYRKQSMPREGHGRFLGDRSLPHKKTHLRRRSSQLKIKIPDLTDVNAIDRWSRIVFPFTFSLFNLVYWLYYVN
Sequence of α4β3δ GABAA receptor (O14764 25-452 partner): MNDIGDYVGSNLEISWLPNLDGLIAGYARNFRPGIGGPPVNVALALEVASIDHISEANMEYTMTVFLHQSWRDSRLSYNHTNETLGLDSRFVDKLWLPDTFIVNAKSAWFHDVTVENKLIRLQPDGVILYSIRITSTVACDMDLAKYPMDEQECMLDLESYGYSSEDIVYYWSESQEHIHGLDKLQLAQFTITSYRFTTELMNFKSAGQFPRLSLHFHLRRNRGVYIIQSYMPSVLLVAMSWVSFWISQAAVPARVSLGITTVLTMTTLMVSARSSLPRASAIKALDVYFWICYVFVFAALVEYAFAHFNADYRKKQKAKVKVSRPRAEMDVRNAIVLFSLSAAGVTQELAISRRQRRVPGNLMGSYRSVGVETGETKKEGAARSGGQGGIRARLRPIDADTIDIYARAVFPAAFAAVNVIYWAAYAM

Compound `CC(=O)[C@H]1CC[C@H]2[C@@H]3CC[C@H]4C[C@H](O)CC[C@]4(C)[C@H]3CC[C@]12C` [ALLO] has an EC50 of 57 nM.
